SMILES strings stand for the structures.

Results on 18 compounds are retold here after patent US20240368169A1 (priority 2021, published 2024).

Test [1] concerns the target recombinant poly(ADP-ribose) polymerase 1 (PARP1) (Homo sapiens, UniProt P09874). The test is described as follows: biochemical. As to conditions: inhibition of PARP1 enzyme activity, chemiluminescence.
In test [2] the target is recombinant poly(ADP-ribose) polymerase 2 (PARP2) (Homo sapiens, UniProt Q9UGN5). The experiment in a line: biochemical. As to conditions: inhibition of PARP2 enzyme activity, chemiluminescence.
recombinant poly(ADP-ribose) polymerase 2 (PARP2), sequence (Q9UGN5 whole entry): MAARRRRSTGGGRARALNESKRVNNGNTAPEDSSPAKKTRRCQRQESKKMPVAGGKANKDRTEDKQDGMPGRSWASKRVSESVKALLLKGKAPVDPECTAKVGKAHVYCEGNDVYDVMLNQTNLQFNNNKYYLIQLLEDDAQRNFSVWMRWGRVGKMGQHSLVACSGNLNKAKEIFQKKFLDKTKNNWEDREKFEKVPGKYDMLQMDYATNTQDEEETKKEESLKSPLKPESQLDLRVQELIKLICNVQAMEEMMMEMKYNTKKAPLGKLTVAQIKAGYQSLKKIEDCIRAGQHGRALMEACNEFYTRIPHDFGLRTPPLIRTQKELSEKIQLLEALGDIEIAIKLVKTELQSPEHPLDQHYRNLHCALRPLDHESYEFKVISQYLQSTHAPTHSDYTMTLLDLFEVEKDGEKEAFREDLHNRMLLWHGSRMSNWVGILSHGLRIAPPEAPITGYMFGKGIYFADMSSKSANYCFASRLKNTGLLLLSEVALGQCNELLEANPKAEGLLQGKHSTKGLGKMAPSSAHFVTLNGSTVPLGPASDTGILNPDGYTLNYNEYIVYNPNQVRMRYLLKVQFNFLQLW
The test system of a further test is MDA-MB-436 cells. The experiment in a line: Growth inhibition assay against BRCA mutant human breast cancer MDA-MB-436 cell line (CCK-8, 7 days). In kind it is cell-based.

recombinant poly(ADP-ribose) polymerase 1 (PARP1), sequence (P09874 whole entry): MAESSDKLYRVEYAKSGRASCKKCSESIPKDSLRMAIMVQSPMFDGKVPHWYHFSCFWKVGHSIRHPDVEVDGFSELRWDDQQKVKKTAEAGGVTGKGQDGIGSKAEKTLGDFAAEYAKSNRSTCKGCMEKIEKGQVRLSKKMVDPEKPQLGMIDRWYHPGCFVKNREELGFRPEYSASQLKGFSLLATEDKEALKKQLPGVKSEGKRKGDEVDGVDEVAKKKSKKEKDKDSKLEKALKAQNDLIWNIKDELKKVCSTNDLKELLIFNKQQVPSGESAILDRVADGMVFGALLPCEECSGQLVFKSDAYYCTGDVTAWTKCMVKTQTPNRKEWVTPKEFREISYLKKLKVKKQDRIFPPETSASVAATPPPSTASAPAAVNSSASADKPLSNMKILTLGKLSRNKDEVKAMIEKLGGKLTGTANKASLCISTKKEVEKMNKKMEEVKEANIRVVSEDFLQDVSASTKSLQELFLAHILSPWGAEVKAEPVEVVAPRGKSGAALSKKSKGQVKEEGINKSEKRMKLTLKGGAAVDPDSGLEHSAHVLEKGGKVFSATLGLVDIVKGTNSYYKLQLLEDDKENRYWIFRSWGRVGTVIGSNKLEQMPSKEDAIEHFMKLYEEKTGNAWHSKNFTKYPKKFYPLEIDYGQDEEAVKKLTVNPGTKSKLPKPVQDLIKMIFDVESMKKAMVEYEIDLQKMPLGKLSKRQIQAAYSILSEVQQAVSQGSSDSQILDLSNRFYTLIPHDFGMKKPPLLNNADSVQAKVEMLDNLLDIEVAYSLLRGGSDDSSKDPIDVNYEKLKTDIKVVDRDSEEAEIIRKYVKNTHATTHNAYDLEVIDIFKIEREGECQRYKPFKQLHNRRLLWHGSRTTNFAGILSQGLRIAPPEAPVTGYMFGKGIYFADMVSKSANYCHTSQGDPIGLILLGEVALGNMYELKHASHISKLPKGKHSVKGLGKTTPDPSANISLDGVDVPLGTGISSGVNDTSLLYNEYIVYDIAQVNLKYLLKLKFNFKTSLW

For orientation: IC50 means the concentration needed to halve the response being measured. On to `CNC(=O)c1ccc(N2CCN(Cc3ccc4c(c3)[nH]c(=O)c3cccn34)CC2)c(C)n1` [Example 24, 7-((4-(2-methyl-6-(methylcarbamoyl)pyridin-3-yl)piperazin-1-yl)methyl)pyrrolo[1,2-a]quinoxalin-4(5H)-one], for which the values for the half-inhibitory concentration (IC50) (in test [1]; in test [2]; with MDA-MB-436 cells) were 0.83 nM, 31.5 nM and 0.78 nM, respectively.
Taken in the same sequence, the figures for `CNC(=O)c1ccc(N2CCN(Cc3cc(F)c4c(c3)[nH]c(=O)c3c(C)cnn34)CC2)c(F)n1` [Example 76, 7-((4-(2-fluoro-6-(methylcarbamoyl)pyridin-3-yl)piperazin-1-yl)methyl)-9-fluoro-3-methylpyrazolo[1,5-a]quinoxalin-4(5H)-one] were 2.1 nM, 64.6 nM and 1.37 nM.
In the case of `CNC(=O)c1ccc(N2CCN(Cc3ccc4c([nH]c(=O)c5cc(Cl)nn54)c3F)CC2)c(C)n1` [Example 103, 7-((4-(2-methyl-6-(methylcarbamoyl)pyridin-3-yl)piperazin-1-yl)methyl)-6-fluoro-2-chloropyrazolo[1,5-a]quinoxalin-4(5H)-one], the results for the IC50 (in test [1]; in test [2]; in the test on MDA-MB-436 cells) were 0.76 nM, 1250 nM and 1.17 nM, respectively.
Taken in the same sequence, the figures for `Cc1nc(C(=O)NCO)ccc1N1CCN(Cc2cc(F)c3c(c2)[nH]c(=O)c2ccnn23)CC1` [Example 117, 7-((4-(2-methyl-6-(N-(hydroxymethyl)carbamoyl)pyridin-3-yl)piperazin-1-yl)methyl)-9-fluoropyrazolo[1,5-a]quinoxalin-4(5H)-one] were 0.91 nM, 645 nM and 4.74 nM.
For `CNC(=O)c1ccc(N2CCN(Cc3ccc4c([nH]c(=O)c5ccnn54)c3F)CC2)c(F)n1` [Example 95, 7-((4-(2-fluoro-6-(methylcarbamoyl)pyridin-3-yl)piperazin-1-yl)methyl)-6-fluoropyrazolo[1,5-a]quinoxalin-4(5H)-one], the half-inhibitory concentration (IC50) came out at 1.82 nM in test [1], 886 nM in test [2] and 6.78 nM with MDA-MB-436 cells.
Taken in the same sequence, the figures for `CNC(=O)c1ccc(N2CCN(Cc3ccc4c(c3)[nH]c(=O)c3cc(C)nn34)CC2)c(F)n1` [Example 69, 7-((4-(2-fluoro-6-(methylcarbamoyl)pyridin-3-yl)piperazin-1-yl)methyl)-2-methylpyrazolo[1,5-a]quinoxalin-4(5H)-one] were 2.32 nM, 49.9 nM and 1.08 nM.
Taken in the same sequence, the figures for `CNC(=O)c1ccc(N2CCN(Cc3ccc4c(c3)[nH]c(=O)c3c(C)ccn34)CC2)c(C)n1` [Example 56, 7-((4-(2-methyl-6-(methylcarbamoyl)pyridin-3-yl)piperazin-1-yl)methyl)-3-methylpyrrolo[1,2-a]quinoxalin-4(5H)-one] were 2.32 nM, 37.9 nM and 0.65 nM.
Taken in the same sequence, the figures for `CNC(=O)c1ccc(N2CCN(Cc3ccc4c(c3)[nH]c(=O)c3cc(C)nn34)CC2)c(C)n1` [Example 57, 7-((4-(2-methyl-6-(methylcarbamoyl)pyridin-3-yl)piperazin-1-yl)methyl)-2-methylpyrazolo[1,5-a]quinoxalin-4(5H)-one] were 1.77 nM, 67.9 nM and 1.43 nM.
With `CNC(=O)c1ccc(N2CCN(Cc3ccc4c(c3)[nH]c(=O)c3c(Cl)cnn34)CC2)c(C)n1` [Example 98, 7-((4-(2-methyl-6-(methylcarbamoyl)pyridin-3-yl)piperazin-1-yl)methyl)-3-chloropyrazolo[1,5-a]quinoxalin-4(5H)-one], the values for the IC50 (in test [1]; in test [2]; with MDA-MB-436 cells) were 1.91 nM, 41 nM and 0.62 nM, respectively.
As to `CNC(=O)c1ccc(N2CCN(Cc3ccc4c5c(c(=O)[nH]c4c3)COC5)CC2)c(C)n1` [Example 4, 7-((4-(2-methyl-6-(methylcarbamoyl)pyridin-3-yl)piperazin-1-yl)methyl)-3,5-dihydrofuro[3,4-c]quinolin-4(1H)-one], the IC50 in test [1] was 1.59 nM; in test [2], 188 nM; with MDA-MB-436 cells, 4.22 nM.
Taken in the same sequence, the figures for `CNC(=O)c1ccc(N2CCN(Cc3cc(F)c4c(c3)[nH]c(=O)n3ccnc43)CC2)c(Cl)n1` [Example 119, 8-((4-(2-chloro-6-(methylcarbamoyl)pyridin-3-yl)piperazin-1-yl)methyl)-10-fluoroimidazo[1,2-c]quinazolin-5(6H)-one] were 1.83 nM, 9500 nM and 16.2 nM.
Taken in the same sequence, the figures for `CNC(=O)c1ccc(N2CCN(Cc3ccc4c([nH]c(=O)c5cc(C)nn54)c3F)CC2)c(F)n1` [Example 115, 7-((4-(2-fluoro-6-(methylcarbamoyl)pyridin-3-yl)piperazin-1-yl)methyl)-6-fluoro-2-methylpyrazolo[1,5-a]quinoxalin-4(5H)-one] were 1.45 nM, 288 nM and 1.98 nM.
As to `CNC(=O)c1ccc(N2CCN(Cc3cc(F)c4c(c3)[nH]c(=O)c3c(C)cnn34)CC2)c(Cl)n1` [Example 77, 7-((4-(2-chloro-6-(methylcarbamoyl)pyridin-3-yl)piperazin-1-yl)methyl)-9-fluoro-3-methylpyrazolo[1,5-a]quinoxalin-4(5H)-one], the IC50 in test [1] was found to be 1.51 nM; in test [2], 241 nM; with MDA-MB-436 cells it was 2.39 nM.
Regarding `CNC(=O)c1ccc(N2CCN(Cc3ccc4c(c3)[nH]c(=O)c3c(C)cnn34)CC2)c(Cl)n1` [Example 72, 7-((4-(2-chloro-6-(methylcarbamoyl)pyridin-3-yl)piperazin-1-yl)methyl)-3-methylpyrazolo[1,5-a]quinoxalin-4(5H)-one], the IC50 stood at 1.12 nM in test [1], 110 nM in test [2] and 2.09 nM in the test with MDA-MB-436 cells.
Taken in the same sequence, the figures for `CNC(=O)c1ccc(N2CCN(Cc3cc(F)c4c(c3)[nH]c(=O)c3cc(Cl)nn34)CC2)c(F)n1` [Example 88, 7-((4-(2-fluoro-6-(methylcarbamoyl)pyridin-3-yl)piperazin-1-yl)methyl)-2-chloro-9-fluoropyrazolo[1,5-a]quinoxalin-4(5H)-one] were 1.72 nM, 80.3 nM and 0.38 nM.
Turning to `Cc1nc(C(=O)NC2CC2)ccc1N1CCN(Cc2cc(F)c3c(c2)[nH]c(=O)c2cccn23)CC1` [Example 66, 7-((4-(2-methyl-6-(cyclopropylcarbamoyl)pyridin-3-yl)piperazin-1-yl)methyl)-9-fluoropyrrolo[1,2-a]quinoxalin-4(5H)-one], the figures for the IC50 (in test [1]; in test [2]; in the test on MDA-MB-436 cells) were 1.63 nM, 66.1 nM and 1.66 nM, respectively.
As to `Cc1nc(C(=O)NC2CC2)ccc1N1CCN(Cc2cc(F)c3c(c2)[nH]c(=O)c2ccnn23)CC1` [Example 92, 7-((4-(2-methyl-6-(cyclopropylcarbamoyl)pyridin-3-yl)piperazin-1-yl)methyl)-9-fluoropyrazolo[1,5-a]quinoxalin-4(5H)-one], the IC50 in test [1] turned out to be 1.38 nM; in test [2], 238 nM; in the test with MDA-MB-436 cells it was 5.05 nM.
In the case of `O=C(NC1CC1)c1ccc(N2CCN(Cc3cc(F)c4c(c3)[nH]c(=O)c3cccn34)CC2)c(F)n1` [Example 67, 7-((4-(2-fluoro-6-(cyclopropylcarbamoyl)pyridin-3-yl)piperazin-1-yl)methyl)-9-fluoropyrrolo[1,2-a]quinoxalin-4(5H)-one], the concentration for half-maximal inhibition (IC50) in test [1] turned out to be 2.02 nM; in test [2], 48.2 nM; in the test with MDA-MB-436 cells, 2.11 nM.
